{"source": "ChEMBL document CHEMBL6083251", "about": "“\"Pseudosubstrate Envelope\"/Free Energy Perturbation-Guided Design and Mechanistic Investigations of Benzothiazole HIV Capsid Modulators with High Ligand Efficiency” (J Med Chem, 2024)", "key": {"[1]": {"test": "Subacute toxicity in male Kunming mouse assessed as focal lymphocyte infiltration in liver at 50 mg/kg, po administered every other day for 14 days by H and E staining based analysis", "assay_type": "organism-based", "conditions": "in vivo, 336 h, time 14 day"}, "[2]": {"target": "Structural capsid protein (Human immunodeficiency virus 1) (UniProt Q76129)", "sequence (Q76129 as listed by the source)": "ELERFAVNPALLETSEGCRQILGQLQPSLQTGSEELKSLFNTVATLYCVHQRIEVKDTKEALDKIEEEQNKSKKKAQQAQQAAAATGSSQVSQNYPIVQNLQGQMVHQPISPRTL", "test": "Binding affinity to HIV-1 hexameric capsid protein assessed as reduction in CPSF6 binding to capsid protein by competition assay based SPR analysis", "conditions": "filed as modulator"}, "[3]": {"test": "Subacute toxicity in male Kunming mouse assessed as piloerection at 50 mg/kg, po administered every other day for 14 days", "assay_type": "organism-based", "conditions": "in vivo, 336 h, time 14 day"}, "[4]": {"test": "Selectivity ratio of EC50 for wild type HIV-1 IIIB infected in human MT4 cells to EC50 for HIV-2 ROD infected in human MT-4 cells assessed as protection against virus-induced cytopathic effect incubated for 5 days by spectrophotometric based MTT assay", "assay_type": "functional", "conditions": "time 5 day"}, "[5]": {"test": "Subacute toxicity in male Kunming mouse assessed as tremor at 50 mg/kg, po administered every other day for 14 days", "assay_type": "organism-based", "conditions": "in vivo, 336 h, time 14 day"}, "[6]": {"test": "Half life in male Sprague-Dawley rat at 2 mg/kg, iv measured upto 24 hrs by LC-MS/MS analysis", "assay_type": "ADME, organism-based", "conditions": "in vivo"}, "[7]": {"test": "Cmax in male Sprague-Dawley rat at 2 mg/kg, iv measured upto 24 hrs by LC-MS/MS analysis", "assay_type": "ADME, organism-based", "conditions": "in vivo"}, "[8]": {"test": "MRT(0 to infinity) in male Sprague-Dawley rat at 2 mg/kg, iv measured upto 24 hrs by LC-MS/MS analysis", "assay_type": "ADME, organism-based", "conditions": "in vivo"}, "[9]": {"test": "C0 in male Sprague-Dawley rat at 2 mg/kg, iv measured upto 24 hrs by LC-MS/MS analysis", "assay_type": "ADME, organism-based", "conditions": "in vivo"}, "[10]": {"test": "Apparent volume of distribution in male Sprague-Dawley rat at 2 mg/kg, iv measured upto 24 hrs by LC-MS/MS analysis", "assay_type": "ADME, organism-based", "conditions": "in vivo, read-out: Vz"}, "[11]": {"test": "Subacute toxicity in male Kunming mouse assessed as body jerks at 50 mg/kg, po administered every other day for 14 days", "assay_type": "organism-based", "conditions": "in vivo, 336 h, time 14 day"}, "[12]": {"test": "Acute toxicity in male Kunming mouse assessed as body weight gain at 1000 mg/kg, IG administered via gavage", "assay_type": "organism-based", "conditions": "in vivo, po"}, "[13]": {"test": "Subacute toxicity in male Kunming mouse assessed as scattered lymphocyte infiltration in heart at 50 mg/kg, po administered every other day for 14 days by H and E staining based analysis", "assay_type": "organism-based", "conditions": "in vivo, 336 h, time 14 day"}, "[14]": {"test": "Clearance in male Sprague-Dawley rat at 2 mg/kg, iv measured upto 24 hrs by LC-MS/MS analysis", "assay_type": "ADME, organism-based", "conditions": "in vivo"}, "[15]": {"test": "Subacute toxicity in male Kunming mouse assessed as convulsion at 50 mg/kg, po administered every other day for 14 days", "assay_type": "organism-based", "conditions": "in vivo, 336 h, time 14 day"}}, "note": "The source made the active and inactive calls. The calls are words filed in the database; no cut-off is given here."}
{"smiles": "CN(C(=O)[C@H](Cc1cc(F)cc(F)c1)NC(=O)Cc1c[nH]c2ccc(O)cc12)c1ccc2scnc2c1", "values": [{"measurement": "Activity", "setting": "[1]", "value": "Toxic"}, {"measurement": "Activity", "setting": "[2]", "value": "Active"}, {"measurement": "Activity", "setting": "[3]", "value": "Non-toxic"}, {"measurement": "Ratio EC50", "setting": "[4]", "value": 0.03}, {"measurement": "Activity", "setting": "[5]", "value": "Non-toxic"}, {"measurement": "half-life", "setting": "[6]", "value": 11.9, "unit": "min"}, {"measurement": "Cmax", "setting": "[7]", "value": 0.0188, "unit": "µg/mL"}, {"measurement": "MRT inf", "setting": "[8]", "value": 12.1, "unit": "min"}, {"measurement": "C0 at 24 h", "setting": "[9]", "value": 0.0337, "unit": "µg/mL"}, {"measurement": "Vd", "setting": "[10]", "value": 72.9, "unit": "L/kg"}, {"measurement": "Activity", "setting": "[11]", "value": "Non-toxic"}, {"measurement": "Activity", "setting": "[12]", "value": "Non-toxic"}, {"measurement": "Activity", "setting": "[13]", "value": "Non-toxic"}, {"measurement": "CL", "setting": "[14]", "value": 282.751, "unit": "L/h/kg"}, {"measurement": "Activity", "setting": "[15]", "value": "Non-toxic"}]}
